Structures are written as SMILES. Some results are limits rather than exact numbers.

For the assay, the system named is HIV-1. The assay is described as follows: Luciferase Assay with single-round reporter virus (NLXLuc or HIV-Luc). It counts as cell-based. To be noted: Human immunodeficiency virus 1. An excerpt: Infectivity assays using reporter viruses derived from lentiviral vectors capable of a single round of infection were used to determine the activity (EC50) of compounds. The DNA used to generate viruses for infection was the full-length HIV-1 genome which had been envelope-deleted. In addition, a reporter gene (the firefly luciferase gene from Photinus pyralis) was cloned into the nefregion of the HIV backbone for ease of assay readout. […]. Culture supernatants containing VSV-G pseudotyped virions were harvested 64 h post transfection, clarified by centrifugation to remove cell debris, and frozen at −70° C. until use.
293FT cells were plated out at 12000 cells per well in CellView 96-well cell culture plates (Invitrogen) 16 h prior to compound addition. Compounds were preincubated with cells for 4 h at 37° C. prior to the addition of virus sufficient to generate approximately 10000 Luciferase light units (as measured by the Victor Wallace luminometer) upon assaying using the Bright-Glo™ reagent (Promega) according to the manufacturer's instructions at 48 h post infection.
In the tables below, this assay is referred to as NLXLuc or HIV-Luc.
What is called EC50 is the concentration that produces a half-maximal response. The molecule `CC1COCCN1c1cc(N2CCNCC2=O)c2nc(C(=O)NCc3ccc(F)cc3)c(O)c(=O)n2c1` (stereo not drawn) [Example 11.3, N-(4-fluorobenzyl)-3-hydroxy-7-(3-methylmorpholino)-4-oxo-9-(2-oxopiperazin-1-yl)-4H-pyrido[1,2-a]pyrimidine-2-carboxamide] displayed a concentration giving a half-maximal response (EC50) of 100 to 1000 nM. Next, `O=C(NCc1ccc(F)cc1)c1nc2c(N3CCOCC3)cc(N3CCOCC3)cn2c(=O)c1O` [Example 21.5, N-(4-fluorobenzyl)-3-hydroxy-7,9-dimorpholino-4-oxo-4H-pyrido[1,2-a]pyrimidine-2-carboxamide]: 100 to 1000 nM.

Consider `O=C(NCc1ccc(F)cc1)c1nc2c(N3CCNCC3=O)cc(N3CCCCC3)cn2c(=O)c1O` [Example 12.3, 3-Hydroxy-4-oxo-9-(2-oxo-piperazin-1-yl)-7-piperidin-1-yl-4H-pyrido[1,2-a]pyrimidine-2-carboxylic acid 4-fluoro-benzylamide], for which the EC50 was 20 to 100 nM. `CN1CCN(c2cc(N3CCOC3=O)c3nc(C(=O)NCc4ccc(F)cc4)c(O)c(=O)n3c2)CC1` [Example 20.4, 3-Hydroxy-7-(4-methyl-piperazin-1-yl)-4-oxo-9-(2-oxo-oxazolidin-3-yl)-4H-pyrido[1,2-a]pyrimidine-2-carboxylic acid 4-fluoro-benzylamide] registered an EC50 of 20 to 100 nM. The value for `CN1CCN(c2cc(N3CCCOC3=O)c3nc(C(=O)NCc4ccc(F)cc4)c(O)c(=O)n3c2)CC1` [Example 1.4, N-(4-fluorobenzyl)-3-hydroxy-7-(4-methylpiperazin-1-yl)-4-oxo-9-(2-oxo-1,3-oxazinan-3-yl)-4H-pyrido[1,2-a]pyrimidine-2-carboxamide] was 100 to 1000 nM. The value for `Cc1ccc2nc(C(=O)NCc3ccc(Cl)c(Cl)c3)c(O)c(=O)n2c1` [drawing 186, reference compound] was 100 to 1000 nM; that for `CN(CC1CC1)c1cc(N2CCNCC2=O)c2nc(C(=O)NCc3ccc(F)cc3)c(O)c(=O)n2c1` [Example 13.4, 7-(Cyclopropylmethyl-methyl-amino)-3-hydroxy-4-oxo-9-(2-oxo-piperazin-1-yl)-4H-pyrido[1,2-a]pyrimidine-2-carboxylic acid 4-fluoro-benzylamide] was 20 to 100 nM; that for `CN(C)c1cc(N2CCNCC2=O)c2nc(C(=O)NCc3ccc(F)cc3)c(O)c(=O)n2c1` [Example 9.3, 7-(dimethylamino)-N-(4-fluorobenzyl)-3-hydroxy-4-oxo-9-(2-oxopiperazin-1-yl)-4H-pyrido[1,2-a]pyrimidine-2-carboxamide] was 100 to 1000 nM. `O=C(NCc1ccc(F)cc1)c1nc2c(N3CCNCC3=O)cc(N3CCCC3)cn2c(=O)c1O` [Example 4.4, 3-Hydroxy-4-oxo-9-(2-oxo-piperazin-1-yl)-7-pyrrolidin-1-yl-4H-pyrido[1,2-a]pyrimidine-2-carboxylic acid 4-fluoro-benzylamide] gave an EC50 of 100 to 1000 nM. The value for `CC(C)N1CCN(c2cc(N3CCN(C)CC3)cn3c(=O)c(O)c(C(=O)NCc4ccc(F)cc4)nc23)C1=O` [Example 17.4, 3-Hydroxy-9-(3-isopropyl-2-oxo-imidazolidin-1-yl)-7-(4-methyl-piperazin-1-yl)-4-oxo-4H-pyrido[1,2-a]pyrimidine-2-carboxylic acid 4-fluoro-benzylamide] was 20 to 100 nM; that for `CN1CCN(c2cc(N3CCOCC3)cn3c(=O)c(O)c(C(=O)NCc4ccc(Cl)c(Cl)c4)nc23)C1=O` [Example 30, N-(3,4-dichlorobenzyl)-3-hydroxy-9-(3-methyl-2-oxoimidazolidin-1-yl)-7-morpholino-4-oxo-4H-pyrido[1,2-a]pyrimidine-2-carboxamide] was 20 to 100 nM; that for `CN(C)c1cc(N2CCOC2=O)c2nc(C(=O)NCc3ccc(F)cc3)c(O)c(=O)n2c1` [Example 7.3, 7-(dimethylamino)-N-(4-fluorobenzyl)-3-hydroxy-4-oxo-9-(2-oxooxazolidin-3-yl)-4H-pyrido[1,2-a]pyrimidine-2-carboxamide] was 100 to 1000 nM. The value for `O=C(NCc1ccc(F)cc1)c1nc2c(N3CCNCC3=O)cc(N3CCOCC3)cn2c(=O)c1O` [Example 10.3, N-(4-fluorobenzyl)-3-hydroxy-7-morpholino-4-oxo-9-(2-oxopiperazin-1-yl)-4H-pyrido[1,2-a]pyrimidine-2-carboxamide] was 100 to 1000 nM; that for `CC(C)N1CCN(c2cc(N(C)S(C)(=O)=O)c3nc(C(=O)NCc4ccc(F)cc4)c(O)c(=O)n3c2)CC1` [Example 6.3, Trifluoro-acetate4-[2-(4-fluoro-benzylcarbamoyl)-3-hydroxy-9-(methanesulfonyl-methyl-amino)-4-oxo-4H-pyrido[1,2-a]pyrimidin-7-yl]-1-isopropyl-piperazin-1-ium] was 10 to 20 nM. The value for `CN1CCN(c2cc(N3CCOCC3)cn3c(=O)c(O)c(C(=O)NCc4ccc(F)cc4)nc23)C1=O` [Example 29.2, N-(4-fluorobenzyl)-3-hydroxy-9-(3-methyl-2-oxoimidazolidin-1-yl)-7-morpholino-4-oxo-4H-pyrido[1,2-a]pyrimidine-2-carboxamide] was 20 to 100 nM; that for `CN1CCN(c2cc(N3CCOCC3)cn3c(=O)c(O)c(C(=O)NCc4ccc(F)cc4)nc23)C(=O)C1` [Example 16.4, 3-Hydroxy-9-(4-methyl-2-oxo-piperazin-1-yl)-7-morpholin-4-yl-4-oxo-4H-pyrido[1,2-a]pyrimidine-2-carboxylic acid 4-fluoro-benzylamide] was 20 to 100 nM. The molecule `Cc1ccc2nc(C(=O)NCc3ccc(F)cc3)c(O)c(=O)n2c1` [drawing 177, reference compound] came in with an EC50 of more than 1000 nM. Next, `O=C(NCc1ccc(F)cc1)c1nc2c(N3CCCS3(=O)=O)cc(N3CCNCC3)cn2c(=O)c1O` [Example 33, 3-Hydroxy-4-oxo-9-(1,3-propanesultam)-7-piperazin-1-yl-4H-pyrido[1,2-a]pyrimidine-2-carboxylic acid 4-fluoro-benzylamide]: 100 to 1000 nM. The value for `CN(C)c1cc(N2CCCOC2=O)c2nc(C(=O)NCc3ccc(F)cc3)c(O)c(=O)n2c1` [Example 8.3, 7-(dimethylamino)-N-(4-fluorobenzyl)-3-hydroxy-4-oxo-9-(2-oxo-1,3-oxazinan-3-yl)-4H-pyrido[1,2-a]pyrimidine-2-carboxamide] was 20 to 100 nM; that for `CN1CCN(c2cc(N(C)S(C)(=O)=O)c3nc(C(=O)NCc4ccc(F)cc4)c(O)c(=O)n3c2)CC1` [Example 5.4, 3-Hydroxy-9-(methanesulfonyl-methyl-amino)-7-(4-methyl-piperazin-1-yl)-4-oxo-4H-pyrido[1,2-a]pyrimidine-2-carboxylic acid 4-fluoro-benzylamide] was 10 to 20 nM. Turning to `O=C(NCc1ccc(F)cc1)c1nc2c(N3CCNCC3=O)cc(N3CCNCC3)cn2c(=O)c1O` [Example 15.3, 3-Hydroxy-4-oxo-9-(2-oxo-piperazin-1-yl)-7-piperazin-1-yl-4H-pyrido[1,2-a]pyrimidine-2-carboxylic acid 4-fluoro-benzylamide], the concentration giving a half-maximal response (EC50) lay within 100 to 1000 nM. `CC(C)N1CCN(c2cc(N3CCN(C)C3=O)c3nc(C(=O)NCc4ccc(F)cc4)c(O)c(=O)n3c2)CC1` [Example 32.4, 3-Hydroxy-7-(4-isopropyl-piperazin-1-yl)-9-(3-methyl-2-oxo-imidazolidin-1-yl)-4-oxo-4H-pyrido[1,2-a]pyrimidine-2-carboxylic acid 4-fluoro-benzylamide]: the half-maximal effective concentration (EC50) is 10 to 20 nM.

With `CN1CCN(c2cc(N3CCCC3=O)c3nc(C(=O)NCc4ccc(F)cc4)c(O)c(=O)n3c2)CC1` [Example 2.4, 3-Hydroxy-7-(4-methyl-piperazin-1-yl)-4-oxo-9-(2-oxo-pyrrolidin-1-yl)-4H-pyrido[1,2-a]pyrimidine-2-carboxylic acid 4-fluoro-benzylamide], the concentration for a half-maximal effect (EC50) was in the range of 100 to 1000 nM. Turning to `CN1CCN(c2cc(N3CCCCC3=O)c3nc(C(=O)NCc4ccc(F)cc4)c(O)c(=O)n3c2)CC1` [Example 18.4, 3-Hydroxy-7-(4-methyl-piperazin-1-yl)-4-oxo-9-(2-oxo-piperidin-1-yl)-4H-pyrido[1,2-a]pyrimidine-2-carboxylic acid 4-fluoro-benzylamide], the EC50 is 20 to 100 nM. The molecule `O=C(NCc1ccc(F)cc1)c1nc2c(N3CCOC3=O)cc(N3CCNCC3)cn2c(=O)c1O` [Example 19.4, 3-Hydroxy-4-oxo-9-(2-oxo-oxazolidin-3-yl)-7-piperazin-1-yl-4H-pyrido[1,2-a]pyrimidine-2-carboxylic acid 4-fluoro-benzylamide] showed an EC50 of more than 1000 nM. The value for `CN1CCN(c2cc(N3CCNCC3=O)c3nc(C(=O)NCc4ccc(F)cc4)c(O)c(=O)n3c2)CC1` [Example 14.3, 3-Hydroxy-7-(4-methyl-piperazin-1-yl)-4-oxo-9-(2-oxo-piperazin-1-yl)-4H-pyrido[1,2-a]pyrimidine-2-carboxylic acid 4-fluoro-benzylamide] was 100 to 1000 nM. The value for `CN1CCN(c2cc(N(C)C)cn3c(=O)c(O)c(C(=O)NCc4ccc(F)cc4)nc23)C1=O` [Example 31.3, 7-Dimethylamino-3-hydroxy-9-(3-methyl-2-oxo-imidazolidin-1-yl)-4-oxo-4H-pyrido[1,2-a]pyrimidine-2-carboxylic acid 4-fluoro-benzylamide] was 100 to 1000 nM.

The values above are taken from patent US20130178469A1, “NOVEL ANTIVIRAL AGENTS” (SHANGHAI INSTITUTE OF ORGANIC CHEMISTRY (SIOC), priority 2010, published 2013).
